According to PMC10692721, “Drug discovery for heart failure targeting myosin-binding protein C” (The Journal of Biological Chemistry, 2023):
Entries after “also recorded” stand apart in the source; their conditions may differ.

Experiments:
[1] = system: TMR-MyBP-C (cC0-C2, sC1-C2S, sC1-C2L, fC1-C2); assay: Compound effects on TMR-MyBP-C lifetime (Fig. S2); type: binding; conditions: Suramin 20 µM, NF023 50 µM, ATA 20 µM
Description: For FLT-TMR experiments, the same samples were excited at 532 nm.
Compound effects on TMR-MyBP-C lifetime. […] All values are the average ± SD. n=5.

[2] = system: fC1-C2 binding to Alexa Fluor 568-actin; assay: AF568-actin-MyBP-C FLT binding assay (Fig. S1); conditions: Suramin 20 µM, NF023 50 µM, ATA 20 µM
[3] = system: FMAL-actin/TMR-cC0-C2 interaction; assay: FLT-FRET concentration-response assay, FMAL-actin plus TMR-cC0-C2; type: binding, human; conditions: unphosphorylated cC0-C2
Method in brief: (§1)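 Hits tested at eight concentrations (0.5–100 μM) and read on a high-throughput fluorescence lifetime plate reader. Hill fits applied only under certain conditions.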

[4] = system: bovine cardiac (left ventricular) myofibrils; assay: Cardiac myofibril ATPase assay; type: biochemical; conditions: 50 μM compound; for effect on cardiac MF ATPase activity (in words): pCa 8 to pCa 4
Description: Rabbit psoas and bovine cardiac myofibrils were prepared as described in our previous study ([17]). An enzyme-coupled, NADH-linked ATPase assay was used to measure skeletal and cardiac myofibril ATPase activity in 96-well microplates at 23 °C. Ionic strength was maintained below 0.2 M, so myofilaments remained insoluble and stable ([32]). To achieve optimal enzymatic activities, buffers for skeletal and cardiac myofibrils differed slightly ([33], [34]): skeletal in 50 mM MOPS, 100 mM KCl, 5 mM MgCl2, 1 mM EGTA, pH 7.0; cardiac in 20 mM MOPS, 35 mM NaCl, 5 mM MgCl2, 1 mM EGTA, pH 7.0. Each well in the microplate contained an assay mix of 0.84 mM phosphoenolpyruvate, 0.17 mM NADH, 10 U/vol pyruvate kinase, 20 U/vol lactate dehydrogenase. The concentration of free Ca^2+ was controlled by EGTA buffering ([35]). Myofibrils were dispensed in microplates with a multichannel pipette and were incubated with assay mix plus compound of interest for 20 min at 23 °C. The concentration of myofibrils used was 0.01 mg/ml for skeletal and 0.05 mg/ml for cardiac myofibrils. The assay was started upon the addition of ATP, at a final concentration of 2.1 mM (total volume to 200 μl), and absorbance was recorded at 340 nm in a SpectraMax Plus microplate spectrophotometer from Molecular Devices. The steady-state myofibrillar ATPase rate was measured from NADH oxidation, measured as the rate of decrease in absorption at 340 nm for 30 min, with absorption data collected every 15 s. All data and statistical analysis of steady-state kinetics were conducted with the OriginPro program. The results were fitted with the Hill equation:(6) […] is the ATPase rate and n is the Hill coefficient. ATPase activity is reported on the μmol ATP/mg protein/min scale. Average data are presented as mean ± SD. Sample means are derived from three different myofibril preps (N = 3), each done in duplicate (n = 6). The effects of compounds on ATPase activity of myofibrils were determined in the presence of 50 μM compound, across a 12-point pCa range from 4.0 (activation) to 8.0 (relaxation). The calcium sensitivity (pCa50) was determined by fitting the curves to the Hill equation. […] The normalized ATPase activity of the selected compounds can be found in Figure 6.

[5] = system: rabbit fast skeletal (psoas) myofibrils; assay: Skeletal myofibril ATPase assay; type: biochemical; conditions: 50 μM compound; for effect on skeletal MF ATPase activity (in words): pCa 8 to pCa 4
Description: Rabbit psoas and bovine cardiac myofibrils were prepared as described in our previous study ([17]). An enzyme-coupled, NADH-linked ATPase assay was used to measure skeletal and cardiac myofibril ATPase activity in 96-well microplates at 23 °C. Ionic strength was maintained below 0.2 M, so myofilaments remained insoluble and stable ([32]). To achieve optimal enzymatic activities, buffers for skeletal and cardiac myofibrils differed slightly ([33], [34]): skeletal in 50 mM MOPS, 100 mM KCl, 5 mM MgCl2, 1 mM EGTA, pH 7.0; cardiac in 20 mM MOPS, 35 mM NaCl, 5 mM MgCl2, 1 mM EGTA, pH 7.0. Each well in the microplate contained an assay mix of 0.84 mM phosphoenolpyruvate, 0.17 mM NADH, 10 U/vol pyruvate kinase, 20 U/vol lactate dehydrogenase. The concentration of free Ca^2+ was controlled by EGTA buffering ([35]). Myofibrils were dispensed in microplates with a multichannel pipette and were incubated with assay mix plus compound of interest for 20 min at 23 °C. The concentration of myofibrils used was 0.01 mg/ml for skeletal and 0.05 mg/ml for cardiac myofibrils. The assay was started upon the addition of ATP, at a final concentration of 2.1 mM (total volume to 200 μl), and absorbance was recorded at 340 nm in a SpectraMax Plus microplate spectrophotometer from Molecular Devices. The steady-state myofibrillar ATPase rate was measured from NADH oxidation, measured as the rate of decrease in absorption at 340 nm for 30 min, with absorption data collected every 15 s. All data and statistical analysis of steady-state kinetics were conducted with the OriginPro program. The results were fitted with the Hill equation:(6) V=V0+(Vmax/1+10^−n∗^(pCa50−pCa)) where V is the ATPase rate and n is the Hill coefficient.
ATPase activity is reported on the μmol ATP/mg protein/min scale. Average data are presented as mean ± SD. Sample means are derived from three different myofibril preps (N = 3), each done in duplicate (n = 6).
The effects of compounds on ATPase activity of myofibrils were determined in the presence of 50 μM compound, across a 12-point pCa range from 4.0 (activation) to 8.0 (relaxation). The calcium sensitivity (pCa50) was determined by fitting the curves to the Hill equation. In all experiments, a 1% DMSO-only control was included. The normalized ATPase activity of the selected compounds can be found in Figure 6.

[6] = system: PKA-phosphorylated TMR-cC0-C2 (cC0-C2#P); assay: FLT-TMR concentration-response assay, PKA-phosphorylated cC0-C2; type: binding, human; conditions: 60 μM compound
Method in brief: as §1

[7] = system: TMR-cC0-C2 (C0-C2 fragment of human cMyBP-C); assay: FLT-TMR concentration-response assay (FLT of TMR on cC0-C2, no actin); type: binding; conditions: 60 μM compound
Method in brief: as §1

[8] = system: FMAL-actin plus TMR-cC0-C2; assay: Selleck library HTS, 473 nm excitation (FLT of FMAL-actin with TMR-cC0-C2, FLT-FRET); type: binding, human
Method in brief: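 Donor fluorescence lifetime was then recorded. Waveforms were fit to a single exponential, and ΔFLT was obtained after a moving-median plate-gradient correction (half-row window), rescaled by the median DMSO lifetime.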

[9] = system: TMR-fC1-C2 (C1-C2 of fast skeletal MyBP-C); assay: FLT-TMR concentration-response assay, fC1-C2; type: binding; conditions: 60 μM compound
Method in brief: as §1

[10] = system: TMR-cC0-C2; assay: Selleck library HTS, 532 nm excitation (FLT of TMR-cC0-C2 in presence of FMAL-actin); type: binding, human
[11] = molecular target: actin (Oryctolagus cuniculus) (UniProt P68135); assay: FLT; conditions: cited from earlier work
[12] = molecular target: actin (Oryctolagus cuniculus) (UniProt P68135); assay: cosedimentation; conditions: cited from earlier work
[13] = molecular target: actin (Oryctolagus cuniculus) (UniProt P68135); assay: FLT; conditions: cited from earlier work; remark: listed apart in the source
[14] = molecular target: actin (Oryctolagus cuniculus) (UniProt P68135); assay: cosedimentation; conditions: cited from earlier work; remark: listed apart in the source
[15] = robust z-score, hit threshold ±4, 30 μM compound

effect on binding of fC1-C2 (2 µM) to Alexa Fluor 568-actin (1 µM) (in words) [2] | effect on FLT-FRET / binding between FMAL-actin and TMR-cC0-C2 (in words) [3] | effect on Ca^2+-sensitivity of cardiac MF ATPase (in words) [4] | effect on Ca^2+-sensitivity of skeletal MF ATPase (in words) [5] | Molecule | effect on FLT of TMR-MyBP-C, all MyBP-C isoforms (in words) [1] | effect on cardiac MF ATPase activity (in words) [4] | effect on skeletal MF ATPase activity (in words) [5] | further results
decreased the binding | eliminates binding | eliminated the Ca^2+-sensitivity | eliminated the Ca^2+-sensitivity | Cc1ccc(C(=O)Nc2ccc(S(=O)(=O)O)c3cc(S(=O)(=O)O)cc(S(=O)(=O)O)c23)cc1NC(=O)c1cccc(NC(=O)Nc2cccc(C(=O)Nc3cc(C(=O)Nc4ccc(S(=O)(=O)O)c5cc(S(=O)(=O)O)cc(S(=O)(=O)O)c45)ccc3C)c2)c1 [Suramin] | increased | remained at levels similar to those at low Ca^2+; also recorded: strongest effect | showed activation at low Ca^2+; also recorded: strongest effect | 
decreased the binding |  | affected |  | O=C(Nc1cccc(C(=O)Nc2ccc(S(=O)(=O)O)c3cc(S(=O)(=O)O)cc(S(=O)(=O)O)c23)c1)Nc1cccc(C(=O)Nc2ccc(S(=O)(=O)O)c3cc(S(=O)(=O)O)cc(S(=O)(=O)O)c23)c1 [NF023] | increased | affected |  | 

The next lines start with the molecule.

Molecule | effect on binding of fC1-C2 (2 µM) to Alexa Fluor 568-actin (1 µM) (in words) [2] | effect on FLT-FRET / binding between FMAL-actin and TMR-cC0-C2 (in words) [3] | effect on Ca^2+-sensitivity of cardiac MF ATPase (in words) [4] | effect on Ca^2+-sensitivity of skeletal MF ATPase (in words) [5] | effect on FLT of TMR-MyBP-C, all MyBP-C isoforms (in words) [1] | effect on cardiac MF ATPase activity (in words) [4] | effect on skeletal MF ATPase activity (in words) [5] | further results
O=C(O)C1=CC(=C(c2ccc(O)c(C(=O)O)c2)c2ccc(O)c(C(=O)O)c2)C=CC1=O [ATA, Aurintricarboxylic acid] | decreased the binding |  |  |  | decreased |  |  | 
Enoxaparin sodium |  | decrease | significant decrease in Ca^2+-sensitivity | negligible |  | reduced at high Ca^2+; also recorded: specific for cardiac myofibril ATPase effects | reduced at high Ca^2+ | cC0-C2#P FLT change (% change from DMSO, FLT of TMR-MyBP-C) [6]: 6.9%; Ca^2+-sensitivity (pCa50) of cardiac MF ATPase in presence of compound ([4]; 5.77 ± 0.03 in the absence of the drug): 5.55 ± 0.03; cC0-C2/cC0-C2#P (ratio of FLT changes) [7]: 0.4; cC0-C2 FLT change (% change from DMSO, FLT of TMR-MyBP-C) [7]: 3.1%; 473-nm Δτ, Repeat 1 ([8]; initial screen, 30 μM compound): 0.190 ns; 473-nm Δτ, Repeat 2 ([8]; initial screen, 30 μM compound): 0.190 ns; 473-nm z-score (based on avg Δτ) [8, 15]: 10.68; cC0-C2/fC1-C2 (ratio of FLT changes) [9]: 1.1; fC1-C2 FLT change (% change from DMSO, FLT of TMR-MyBP-C) [9]: 2.8%; 532-nm Δτ, Repeat 1 ([10]; initial screen, 30 μM compound): -0.023 ns; 532-nm Δτ, Repeat 2 ([10]; initial screen, 30 μM compound): -0.033 ns; 532-nm z-score (based on avg Δτ) [10, 15]: -1.67
cardiac MyBP-C C0-C2 (from UniProt Q14896) |  |  |  |  |  |  |  | Kd [11]: 19 µM; Kd [12]: 4.3 µM; Kd [13]: 2.5 µM; Kd [14]: 6.5 µM
